Assay results as given in paper PMC8468039, “Development of New Meridianin/Leucettine-Derived Hybrid Small Molecules as Nanomolar Multi-Kinase Inhibitors with Antitumor Activity” (Biomedicines, 2021).
“And” between values parts separate entries of the source, which are not always exact repeats. Equal values may be shown once. Read-outs that look alike come from different tables or passages of the source.

Columns and labels:
FMS = biological target: T1, FMS (Homo sapiens, UniProt P07333); assay: In vitro kinase inhibition assay (HotSpot, Reaction Biology); assay type: biochemical; conditions: for inhibition at 10 µM: read-out: Percent Inhibition, FMS; for IC50: 10-dose, 3-fold serial dilution starting at 100 μM; for fold more potent than imatinib over FMS: from IC50 values
T1 construct: purchased Reaction Biology Corp
Experimental: (§1) The in vitro kinase inhibition assay was carried out by Reaction Biology Corp. (Reaction Biology Corp., Chester, PA, USA) Kinase HotSpot^SM service (http://www.reactionbiology.com, accessed on 15 January 2021), following the previously reported methods. (For details, see Supplementary Material).
(§2) As mentioned in the introduction, to get insights about the kinase inhibition profile of the hybrid small molecule 5a, an in vitro screening over a panel of 14 cancer-related kinases was carried out. Accordingly, 10 µM concentrations of compound 5a were used in a kinase inhibition assay over various kinase groups and families in the presence of 10 µM ATP using HotSpotSM technology. To get a comprehensive picture of the inhibitory activities of the tested compound (5a) against the kinase panel, data are illustrated in Table 1. […] Compound 5a was also able to suppress the kinase activity of the epidermal growth factor receptor (EGFR), platelet-derived growth factor receptor-alpha (PDGFRα), and cyclin-dependent kinase 2 (CDK2) with modest inhibition values of 26.99 ± 0.9, 24.0 ± 0.4, and 20.1 ± 0.1%, respectively. […] Several studies have confirmed direct relationships between the most affected kinases (FMS, LCK, LYN, and DAPK1) and different human disorders including cancer.
(§3) 5. Protocol of Kinase assay
(§4) Kinases inhibitory activities were assessed by the HotSpot assay platform, which contained specific kinase/substrate pairs along with required cofactors. Base reaction buffer: 20 mM Hepes (pH 7.5), 10 mM MgCl2, 1 mM EGTA, 0.02% Brij35, 0.02 mg/ml BSA, 0.1 mM Na3VO4, 2 mM DTT, 1% DMSO. Testing compounds were dissolved in 100% DMSO to specific concentration. The serial dilution was conducted by Integra Viaflo Assist in DMSO. The reaction mixture containing the examined compound and 33P-ATP was incubated at room temperature for 2h and radioactivity was detected by filter-binding method. Kinase activity data were expressed as the percent remaining kinase activity in test samples compared to vehicle (dimethyl sulfoxide) reactions. IC50 values and curve fits were obtained using Prism (GraphPad Software).

DAPK1 = biological target: T2, DAPK1 (Homo sapiens, UniProt P53355); assay: as above; assay type: biochemical; conditions: single dose of 10 µM; read-out: Percent Inhibition, DAPK1
T2 construct: purchased Reaction Biology Corp
Experimental: as §1, §2, §3, §4
(§5) 6. Biology raw data for IC50 determination
(§6) Paper ID Cpd ID NSC Number

LCK = biological target: T3, LCK (Homo sapiens, UniProt P06239); assay: as above; assay type: biochemical; conditions: for inhibition at 10 µM: single dose of 10 µM, 10 µM ATP as printed, read-out: Percent Inhibition, LCK
T3 construct: purchased Reaction Biology Corp
Experimental: as §1, §2, §3, §4, §5, §6

LYN = biological target: T4, LYN (Homo sapiens, UniProt P07948); assay: as above; assay type: biochemical; conditions: for inhibition at 10 µM: single dose of 10 µM, 10 µM ATP as printed, read-out: Percent Inhibition, LYN
T4 construct: purchased Reaction Biology Corp
Experimental: as §1, §2, §3, §4, §5, §6

786-0 = assay: NCI growth inhibition (SRB) assay; assay type: cell-based; conditions: Homo sapiens, 786-0, Renal Cancer, single dose 10 µM, 48 h, read-out: Percent Growth Inhibition (GI)
Experimental: (§7) The antitumor assay was performed according to the protocol of the Drug Evaluation Branch, NCI, Bethesda. A 48 h drug exposure protocol was adopted, and sulforhodamine B (SRB) assay was utilized to assess the cell growth and viability, as reported earlier.
(§8) The inhibition results of tumor cell growth by the newly synthesized compounds (5a–5g) are described in Table 4. The reported measurements have been performed at the NIH National Cancer Institute, USA by a standardized assay including a panel of 60 different tumor cell lines (Supplementary Data). The following cancer cell types were included in these assays: Leukemia, non-small cell lung cancer, colon cancer, CNS cancer, melanoma, ovarian cancer, renal cancer, prostate, and breast cancer. […] Additionally, the 3,4-dimethoxy substituted compound (5b) also suffered poor activity against the cancer cell lines.

A498 = assay: NCI growth inhibition (SRB) assay; assay type: cell-based; conditions: Homo sapiens, A498, Renal Cancer, single dose 10 µM, 48 h, read-out: Percent Growth Inhibition (GI)
Experimental: as §7, §8

ACHN = assay: NCI growth inhibition (SRB) assay; assay type: cell-based; conditions: Homo sapiens, Renal Cancer, single dose 10 µM, 48 h, read-out: Percent Growth Inhibition (GI)
Experimental: as §7, §8

HCT-116 = assay: NCI growth inhibition (SRB) assay; assay type: cell-based; conditions: Homo sapiens, HCT-116, Colon Cancer, single dose 10 µM, 48 h, read-out: Percent Growth Inhibition (GI)
Experimental: as §7, §8

HCT-15 = assay: NCI growth inhibition (SRB) assay; assay type: cell-based; conditions: Homo sapiens, HCT-15, Colon Cancer, single dose 10 µM, 48 h, read-out: Percent Growth Inhibition (GI)
Experimental: as §7, §8

HL-60(TB) = assay: NCI growth inhibition (SRB) assay; assay type: cell-based; conditions: Homo sapiens, Leukemia, single dose 10 µM, 48 h, read-out: Percent Growth Inhibition (GI)
Experimental: as §7, §8

HS 578T = assay: NCI growth inhibition (SRB) assay; assay type: cell-based; conditions: Homo sapiens, Breast Cancer, single dose 10 µM, 48 h, read-out: Percent Growth Inhibition (GI)
Experimental: as §7, §8

HT29 = assay: NCI growth inhibition (SRB) assay; assay type: cell-based; conditions: Homo sapiens, HT-29, HT29, Colon Cancer, single dose 10 µM, 48 h, read-out: Percent Growth Inhibition (GI)
Experimental: as §7, §8

KM12 = assay: NCI growth inhibition (SRB) assay; assay type: cell-based; conditions: Homo sapiens, KM12, Colon Cancer, single dose 10 µM, 48 h, read-out: Percent Growth Inhibition (GI)
Experimental: as §7, §8

MOLT-4 = assay: NCI growth inhibition (SRB) assay; assay type: cell-based; conditions: Homo sapiens, MOLT-4, Leukemia, single dose 10 µM, 48 h, read-out: Percent Growth Inhibition (GI)
Experimental: as §7, §8

NCI-H522 = assay: NCI growth inhibition (SRB) assay; assay type: cell-based; conditions: Homo sapiens, NCI-H522, Non-Small Cell Lung Cancer, single dose 10 µM, 48 h, read-out: Percent Growth Inhibition (GI)
Experimental: as §7, §8

PC-3 = assay: NCI growth inhibition (SRB) assay; assay type: cell-based; conditions: Homo sapiens, PC-3, Prostate Cancer, single dose 10 µM, 48 h, read-out: Percent Growth Inhibition (GI)
Experimental: as §7, §8

RPMI-8226 = assay: NCI growth inhibition (SRB) assay; assay type: cell-based; conditions: Homo sapiens, RPMI-8226, Leukemia, single dose 10 µM, 48 h, read-out: Percent Growth Inhibition (GI)
Experimental: as §7, §8

SR = assay: NCI growth inhibition (SRB) assay; assay type: cell-based
Experimental: as §7, §8

T-47D = assay: NCI growth inhibition (SRB) assay; assay type: cell-based; conditions: Homo sapiens, T47D, Breast Cancer, single dose 10 µM, 48 h, read-out: Percent Growth Inhibition (GI)
Experimental: as §7, §8

UACC-62 = assay: NCI growth inhibition (SRB) assay; assay type: cell-based; conditions: Homo sapiens, UACC-62, Melanoma, single dose 10 µM, 48 h, read-out: Percent Growth Inhibition (GI)
Experimental: as §7, §8

[1] = single dose of 10 µM, 10 µM ATP as printed
[2] = Homo sapiens, Leukemia, single dose 10 µM, 48 h, read-out: Percent Growth Inhibition (GI)
[3] = 10-dose, 3-fold serial dilution starting at 100 μM

T2 sequence (P53355 whole entry): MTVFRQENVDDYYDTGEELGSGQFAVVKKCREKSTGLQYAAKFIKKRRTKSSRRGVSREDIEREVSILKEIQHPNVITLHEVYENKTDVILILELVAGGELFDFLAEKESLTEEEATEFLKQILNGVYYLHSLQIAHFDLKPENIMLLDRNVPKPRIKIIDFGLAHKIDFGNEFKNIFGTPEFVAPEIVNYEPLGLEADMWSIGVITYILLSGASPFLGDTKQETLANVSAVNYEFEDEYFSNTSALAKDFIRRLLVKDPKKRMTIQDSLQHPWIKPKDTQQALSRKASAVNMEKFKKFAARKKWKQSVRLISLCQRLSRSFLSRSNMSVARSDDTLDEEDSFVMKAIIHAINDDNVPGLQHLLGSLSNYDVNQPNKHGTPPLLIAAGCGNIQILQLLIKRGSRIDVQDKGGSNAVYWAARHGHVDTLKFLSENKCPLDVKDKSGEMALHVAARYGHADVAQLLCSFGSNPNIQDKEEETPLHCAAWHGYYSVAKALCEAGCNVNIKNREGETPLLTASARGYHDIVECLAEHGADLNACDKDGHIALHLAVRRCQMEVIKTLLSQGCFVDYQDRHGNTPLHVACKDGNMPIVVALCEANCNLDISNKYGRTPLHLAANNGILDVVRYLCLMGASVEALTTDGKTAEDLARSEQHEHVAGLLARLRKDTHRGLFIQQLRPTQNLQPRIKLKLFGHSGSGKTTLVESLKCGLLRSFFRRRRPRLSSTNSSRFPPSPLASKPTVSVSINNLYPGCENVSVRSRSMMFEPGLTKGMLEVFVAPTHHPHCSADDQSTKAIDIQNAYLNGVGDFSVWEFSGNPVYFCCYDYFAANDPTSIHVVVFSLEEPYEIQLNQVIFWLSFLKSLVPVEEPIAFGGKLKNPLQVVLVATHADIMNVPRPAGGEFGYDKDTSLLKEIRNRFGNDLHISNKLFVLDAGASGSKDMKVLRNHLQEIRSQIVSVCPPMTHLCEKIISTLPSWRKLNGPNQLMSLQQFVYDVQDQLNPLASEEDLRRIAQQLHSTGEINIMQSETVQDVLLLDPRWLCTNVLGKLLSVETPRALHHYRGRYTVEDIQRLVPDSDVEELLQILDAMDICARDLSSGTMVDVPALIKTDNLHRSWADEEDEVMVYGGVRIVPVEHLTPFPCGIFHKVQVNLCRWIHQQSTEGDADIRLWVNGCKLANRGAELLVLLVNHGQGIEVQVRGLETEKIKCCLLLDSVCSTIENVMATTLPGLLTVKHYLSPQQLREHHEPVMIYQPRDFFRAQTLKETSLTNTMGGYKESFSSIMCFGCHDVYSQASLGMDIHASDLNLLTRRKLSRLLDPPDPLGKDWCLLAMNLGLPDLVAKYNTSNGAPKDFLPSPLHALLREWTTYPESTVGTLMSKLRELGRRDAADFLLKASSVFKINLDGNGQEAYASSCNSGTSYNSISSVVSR
T1 sequence (P07333 20-972): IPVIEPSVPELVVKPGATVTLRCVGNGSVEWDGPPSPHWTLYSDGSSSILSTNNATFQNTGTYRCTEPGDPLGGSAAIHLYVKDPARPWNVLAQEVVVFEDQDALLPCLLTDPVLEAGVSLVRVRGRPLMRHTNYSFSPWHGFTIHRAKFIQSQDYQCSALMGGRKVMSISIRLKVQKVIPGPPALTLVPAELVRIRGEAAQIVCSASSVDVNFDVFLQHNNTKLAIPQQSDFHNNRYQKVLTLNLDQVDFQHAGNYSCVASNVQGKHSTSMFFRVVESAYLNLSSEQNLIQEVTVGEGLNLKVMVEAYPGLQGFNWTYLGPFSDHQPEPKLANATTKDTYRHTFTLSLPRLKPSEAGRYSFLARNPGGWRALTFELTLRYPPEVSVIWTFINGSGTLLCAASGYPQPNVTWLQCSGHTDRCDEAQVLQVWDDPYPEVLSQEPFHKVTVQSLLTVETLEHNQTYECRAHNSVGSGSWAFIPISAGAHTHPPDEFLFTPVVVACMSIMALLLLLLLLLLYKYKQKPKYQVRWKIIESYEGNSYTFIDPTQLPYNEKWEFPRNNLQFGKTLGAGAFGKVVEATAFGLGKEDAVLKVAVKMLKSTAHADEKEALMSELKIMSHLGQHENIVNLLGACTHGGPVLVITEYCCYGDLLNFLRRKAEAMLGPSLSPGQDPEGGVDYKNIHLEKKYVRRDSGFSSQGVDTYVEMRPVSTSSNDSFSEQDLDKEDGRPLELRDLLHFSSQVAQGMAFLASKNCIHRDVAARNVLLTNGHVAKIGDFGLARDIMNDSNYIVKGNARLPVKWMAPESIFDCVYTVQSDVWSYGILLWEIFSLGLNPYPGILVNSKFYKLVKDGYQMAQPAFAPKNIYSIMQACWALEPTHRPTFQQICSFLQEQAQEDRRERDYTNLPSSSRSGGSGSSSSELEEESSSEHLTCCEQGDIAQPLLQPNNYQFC
T4 sequence (P07948 whole entry): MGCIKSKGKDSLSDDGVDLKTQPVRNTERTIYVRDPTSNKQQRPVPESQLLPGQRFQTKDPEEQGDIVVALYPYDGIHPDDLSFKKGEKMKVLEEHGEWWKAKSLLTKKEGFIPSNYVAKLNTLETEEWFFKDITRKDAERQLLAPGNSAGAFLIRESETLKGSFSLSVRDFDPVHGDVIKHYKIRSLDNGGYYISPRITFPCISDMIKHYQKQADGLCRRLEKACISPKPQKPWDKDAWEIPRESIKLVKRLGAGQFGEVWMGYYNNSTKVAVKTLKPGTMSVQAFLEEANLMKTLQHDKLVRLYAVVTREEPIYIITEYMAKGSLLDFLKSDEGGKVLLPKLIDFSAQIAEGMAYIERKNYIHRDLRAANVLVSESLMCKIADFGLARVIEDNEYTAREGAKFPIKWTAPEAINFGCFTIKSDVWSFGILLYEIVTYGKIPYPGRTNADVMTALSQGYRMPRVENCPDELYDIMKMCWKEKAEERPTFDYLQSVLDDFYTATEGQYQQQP
T3 sequence (P06239 whole entry): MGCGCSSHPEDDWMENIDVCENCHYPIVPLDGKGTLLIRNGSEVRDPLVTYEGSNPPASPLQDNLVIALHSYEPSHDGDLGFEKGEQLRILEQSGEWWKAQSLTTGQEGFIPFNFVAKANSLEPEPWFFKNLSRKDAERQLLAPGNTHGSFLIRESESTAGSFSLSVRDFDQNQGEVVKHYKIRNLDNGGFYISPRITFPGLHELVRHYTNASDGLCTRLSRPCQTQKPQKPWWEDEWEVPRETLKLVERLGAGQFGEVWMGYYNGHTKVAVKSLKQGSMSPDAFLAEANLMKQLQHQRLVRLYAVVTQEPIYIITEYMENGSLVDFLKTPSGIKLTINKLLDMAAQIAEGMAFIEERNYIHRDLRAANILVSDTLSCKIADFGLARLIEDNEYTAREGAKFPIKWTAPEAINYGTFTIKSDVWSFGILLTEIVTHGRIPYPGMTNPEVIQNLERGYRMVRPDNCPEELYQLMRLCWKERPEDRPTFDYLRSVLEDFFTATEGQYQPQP

Compound | inhibition at 10 µM (FMS; [1]) | inhibition at 10 µM (DAPK1) | inhibition at 10 µM (LCK) | inhibition at 10 µM (LYN) | inhibition at 10 µM (786-0) | inhibition at 10 µM (A498) | inhibition at 10 µM (ACHN) | inhibition at 10 µM (HCT-116) | inhibition at 10 µM (HCT-15) | inhibition at 10 µM (HL-60(TB)) | inhibition at 10 µM (HS 578T) | inhibition at 10 µM (HT29) | inhibition at 10 µM (KM12) | inhibition at 10 µM (MOLT-4) | inhibition at 10 µM (NCI-H522) | inhibition at 10 µM (PC-3) | inhibition at 10 µM (RPMI-8226) | inhibition at 10 µM (SR; [2]) | inhibition at 10 µM (T-47D) | inhibition at 10 µM (UACC-62) | further results
COc1ccc(Oc2nc(Nc3ccc(N4CCOCC4)cc3)ncc2NC(=O)Cc2cc(OC)cc(OC)c2)cc1 [5e, 2-(3,5-Dimethoxyphenyl)-N-(4-(4-methoxyphenoxy)-2-((4-morpholinophenyl)amino)pyrimidin-5-yl)acetamide] | 75.5 ± 0.8% | 47.1 ± 0.7% | 39.5 ± 0.4% | 7.9 ± 0.4% | 0.75% | -6.85% | -0.26% | 0.34% | 1.13% | -6.34% | 1.64% | -8.47% | 1.32% | -0.81% | 8.4% | 8.05% | 11.3% | 13.2% | 10.2% | 1.34% | 
COc1ccc(Oc2nc(Nc3ccc(N4CCOCC4)cc3)ncc2NC(=O)c2ccnc([N+](=O)[O-])c2)cc1 [5f, N-(4-(4-Methoxyphenoxy)-2-((4-morpholinophenyl)amino)pyrimidin-5-yl)-2-nitroisonicotinamide] | 65.4 ± 0.1% | 65.5 ± 1.4% | 72.6 ± 0.6% | 34.1 ± 2.2% | 5.78% | 6.39% | 1.61% | -0.19% | 32.8% | -3.19% | 6.7% | -8.86% | -1.85% | -5.98% | 9.77% | 13.8% | 16.3% | 27.4% | 5.93% | 21.4% | 
COc1ccc(Oc2nc(Nc3ccc(N4CCOCC4)cc3)ncc2NC(=O)c2ccc3c(c2)OCO3)cc1 [5a, N-(4-(4-Methoxyphenoxy)-2-((4-morpholinophenyl)amino)pyrimidin-5-yl)benzo[d][1,3]dioxole-5-carboxamide] | 82.5 ± 0.6% | 55 ± 1.1% | 81.4 ± 0.6% | 75.2% | 25.3% | 22.4% | 8.91% | 14.6% | 26% | 16.2% | 6.26% | 28.3% | 12.7% | 31.1% | 22.7% | 11.7% | 21.8% | 37.1% | 6.78% | 7.38% | 
COc1ccc(Oc2nc(Nc3ccc(N4CCOCC4)cc3)ncc2NC(=O)c2cccc(SC)c2)cc1 [5g, N-(4-(4-Methoxyphenoxy)-2-((4-morpholinophenyl)amino)pyrimidin-5-yl)-3-(methylthio)benzamide] |  | 54.6 ± 0.8% | 96.9 ± 0.3% | 96.4 ± 0.1% | 25% | 18.9% | 21.4% | 23.7% | 31.7% | 13.9% | 22.7% | 24.3% | 20.2% | 43.1% | 26.4% | 24.9% | 20.5% |  | 28.2% | 14.7% | IC50 (FMS): 110 ± 8 nM; fold more potent than imatinib over FMS (FMS): ~ 9 fold and 9 fold; inhibition at 10 µM (FMS): 90.6 ± 0.8%; IC50 (LCK; [3]): 87.7 ± 8.3 nM; fold more potent than imatinib over LCK (LCK; from IC50 values): ~2 fold; IC50 (LYN; [3]): 169 ± 31 nM; inhibition at 10 µM (SR; Homo sapiens, 48 h, Leukemia, single dose 10 µM, read-out: Percent Growth Inhibition (GI)): 60%; Percent Growth Inhibition (GI) (SR; Leukemia, single dose 10 µM, 48 h): 60.5%
CCOc1cc(OCC)cc(C(=O)Nc2cnc(Nc3ccc(N4CCOCC4)cc3)nc2Oc2ccc(OC)cc2)c1 [5d, 3,5-Diethoxy-N-(4-(4-methoxyphenoxy)-2-((4-morpholinophenyl)amino)pyrimidin-5-yl)benzamide] | 95.1 ± 0.3% | 51.6 ± 0.5% | 38.3 ± 4.2% | 31.5 ± 5.8% | 7.41% | 17.9% | 20.4% | 6.73% | 13.2% | 22.8% | 7.96% | 9.54% | 14% | 38.2% | 29.8% | 27.3% | 25.6% | 33.2% | 18.4% | 12% | IC50 (FMS): 213 ± 1 nM; fold more potent than imatinib over FMS (FMS): ~5 fold
COc1ccc(Oc2nc(Nc3ccc(N4CCOCC4)cc3)ncc2NC(=O)c2ccc(OC)c(OC)c2)cc1 [5b, 3,4-Dimethoxy-N-(4-(4-methoxyphenoxy)-2-((4-morpholinophenyl)amino)pyrimidin-5-yl)benzamide] | 44.1 ± 0.2% | 65 ± 1.2% | 62.3 ± 0.8% | 36.9 ± 4.5% | 17.6% | -5.56% | -7.28% | 6.01% | 12.3% | 16.4% | 5.09% | -2.93% | -4.34% | 19.9% | -3.5% | 0.75% | 11.1% | 18.8% | 2.41% | 0.1% | 
